Test results from patent publication US8124623B2, “5-hydroxymethyl-oxazolidin-2-one-derivatives and their uses as antibacterials” (Actelion Pharmaceuticals Ltd., priority 2006, dated 2012).
In brackets after ≈: the same amount, converted by molar mass. Where two headings read alike, the source gives them in different places.

Columns and labels:
[1] = tested on: S. aureus A798; test: MIC, broth microdilution (NCCLS); assay type: cell-based; settings: for MIC: Staphylococcus aureus
Experimental: These assays have been performed following the description given in “Methods for dilution Antimicrobial Susceptibility Tests for Bacteria that Grow Aerobically, 4th ed.; Approved standard: NCCLS Document M7-A4; National Committee for Clinical Laboratory Standards Villanova, Pa., USA, 1997”. Minimal inhibitory concentrations (MICs; mg/l) were determined in cation-adjusted Mueller-Hinton Broth (BBL) by a microdilution method following NCCLS guidelines (National Committee for Clinical Laboratory Standards. Methods for Dilution Antimicrobial Susceptibility). The pH1 of the test medium was 7.2-7.3. In the particular case wherein the compound to be tested is a compound of formula IPDc wherein at least one of R^1 and R^2 represents OPO3H2, then the test was carried out in the presence of human alkaline phosphatase (concentration: 1 U/mL). In the particular case wherein the compound to be tested is a compound of formula IPDG wherein R^1 represents a group OCOR^5, then the test may be carried out in the presence of 50% human serum.

[2] = tested on: C. difficile ATCC 43596; test: MIC, anaerobic broth microdilution, reference strains; assay type: cell-based, Clostridium difficile; settings: Clostridioides difficile, ATCC43596, 48 h, read-out: MIC regarding C. difficile ATCC 43596
[3] = tested on: C. difficile ATCC 9689; test: as above; assay type: cell-based, Clostridium difficile; settings: Clostridioides difficile, ATCC9689, 48 h, read-out: MIC regarding C. difficile ATCC 9689
[4] = tested on: C. difficile NC 13366; test: as above; assay type: cell-based, Clostridium difficile; settings: Clostridioides difficile, NC13366, 48 h, read-out: MIC regarding C. difficile NC 13366
[5] = tested on: C. perfringens DSM 756; test: microbe, parasite or virus in culture; assay type: cell-based; settings: Clostridium perfringens, DSM756, 48 h, read-out: MIC regarding C. perfringens DSM 756
[6] = tested on: M. catarrhalis A894; test: MIC, broth microdilution (NCCLS); assay type: cell-based
[7] = tested on: S. Pneumoniae 49619; test: MIC, broth microdilution (NCCLS); assay type: cell-based
Experimental: (§1) These assays have been performed following the description given in “Methods for dilution Antimicrobial Susceptibility Tests for Bacteria that Grow Aerobically, 4th ed.; Approved standard: NCCLS Document M7-A4; National Committee for Clinical Laboratory Standards Villanova, Pa., USA, 1997”. Minimal inhibitory concentrations (MICs; mg/l) were determined in cation-adjusted Mueller-Hinton Broth (BBL) by a microdilution method following NCCLS guidelines (National Committee for Clinical Laboratory Standards. Methods for Dilution Antimicrobial Susceptibility). The pH1 of the test medium was 7.2-7.3.

[8] = tested on: E. faecalis 29212; test: MIC, broth microdilution (NCCLS); assay type: cell-based; settings: Enterococcus faecalis, read-out: MIC against E. faecalis 29212
Experimental: as §1

[9] = tested on: 209 diverse clinical isolates of C. difficile; test: MIC, CLSI agar dilution, clinical isolates; assay type: cell-based, Clostridium difficile; settings: Clostridioides difficile, 209 clinical isolates of C. difficile
[10] = tested on: C. difficile strain NC13366; assay type: cell-based
[11] = A798, read-out: MIC S. aureus A798
[12] = A798, in the absence of human serum, read-out: MIC against S. aureus A798
[13] = A798, in the presence of human alkaline phosphatase (1 U/mL), read-out: MIC against S. aureus A798
[14] = A798, phosphatase absent, read-out: MIC against S. aureus A798

## O=C(O)c1cn(C2CC2)c2cc(N3CCC(O)(COc4ccc(N5C[C@H](CO)OC5=O)cc4F)C3)c(F)cc2c1=O (mixture of isomers) [Example 6, 1-cyclopropyl-6-fluoro-7-{(RS)-3-[2-fluoro-4-((R)-5-hydroxymethyl-2-oxo-oxazolidin-3-yl)-phenoxymethyl]-3-hydroxy-pyrrolidin-1-yl}-4-oxo-1,4-dihydro-quinoline-3-carboxylic acid]
[1]; [11]
  MIC: 1 µg/mL
[2]
  MIC: 0.25 µg/mL
[3]
  MIC: 0.5 µg/mL
[4]
  MIC: 0.25 µg/mL
[5]
  MIC: 0.125 µg/mL

## O=C(O)c1cn(C2CC2)c2cc(N3CCC(COc4ccc(N5C[C@H](CO)OC5=O)cc4F)C3)c(F)cc2c1=O (mixture of isomers) [Example 8, 1-cyclopropyl-6-fluoro-7-{(RS)-3-[2-fluoro-4-((R)-5-hydroxymethyl-2-oxo-oxazolidin-3-yl)-phenoxymethyl]-pyrrolidin-1-yl}-4-oxo-1,4-dihydro-quinoline-3-carboxylic acid]
[1]; [11]
  MIC: 0.125 µg/mL

## COc1c(N2CCC(COc3ccc(N4C[C@H](CO)OC4=O)cc3F)C2)c(F)cc2c(=O)c(C(=O)O)cn(C3CC3)c12 (mixture of isomers) [Example 9, 1-cyclopropyl-6-fluoro-7-{(RS)-3-[2-fluoro-4-((R)-5-hydroxymethyl-2-oxo-oxazolidin-3-yl)-phenoxymethyl]-pyrrolidin-1-yl}-8-methoxy-4-oxo-1,4-dihydro-quinoline-3-carboxylic acid]
[1]; [11]
  MIC: 1 µg/mL

## COc1c(N2CCC(O)(COc3ccc(N4C[C@H](CO)OC4=O)cc3F)C2)c(F)cc2c(=O)c(C(=O)O)cn(C3CC3)c12 (mixture of isomers) [Example 7, 1-cyclopropyl-6-fluoro-7-{(RS)-3-[2-fluoro-4-((R)—S-hydroxymethyl-2-oxo-oxazolidin-3-yl)-phenoxymethyl]-3-hydroxy-pyrrolidin-1-yl}-8-methoxy-4-oxo-1,4-dihydro-quinoline-3-carboxylic acid]
[1]
  MIC S. aureus A798: 1 µg/mL (≈ 1.66 µM)
[6]
  MIC M. catarrhalis A894: 0.063 µg/mL (≈ 0.105 µM)
[7]
  MIC S. Pneumoniae 49619: 0.25 µg/mL (≈ 0.416 µM)

## O=C(O)c1cn(C2CC2)c2cc(N3CCC(COc4ccc(N5C[C@H](CO)OC5=O)cc4F)CC3)c(F)cc2c1=O [Example 2, 1-cyclopropyl-6-fluoro-7-{4-[2-fluoro-4-((R)-5-hydroxymethyl-2-oxo-oxazolidin-3-yl)-phenoxymethyl]-piperidin-1-yl}-4-oxo-1,4-dihydro-quinoline-3-carboxylic acid]
[1]; [11]
  MIC: 0.25 µg/mL (≈ 0.439 µM)

## O=C(O)c1cn(C2CC2)c2nc(N3CCC(O)(COc4ccc(N5C[C@H](CO)OC5=O)cc4F)CC3)c(F)cc2c1=O [Example 3, 1-cyclopropyl-6-fluoro-7-[4-[2-fluoro-4-((R)-5-hydroxymethyl-2-oxo-oxazolidin-3-yl)-phenoxymethyl]-4-hydroxy-piperidin-1-yl]-4-oxo-1,4-dihydro-[1,8]naphthyridine-3-carboxylic acid]
[1]; [11]
  MIC: 0.25 µg/mL (≈ 0.426 µM)
[6]; Moraxella catarrhalis, A894
  MIC: 0.5 µg/mL (≈ 0.852 µM)

## C[C@H](N)C(=O)OC[C@H]1CN(c2ccc(OCC3(O)CCN(c4cc5c(cc4F)c(=O)c(C(=O)O)cn5C4CC4)CC3)c(F)c2)C(=O)O1.Cl [Example 4, 7-(4-{-4-[(R)-5-((S)-2-amino-propionyloxymethyl)-2-oxo-oxazolidin-3-yl]-2-fluoro-phenoxymethyl}-4-hydroxy-piperidin-1-yl)-1-cyclopropyl-6-fluoro-4-oxo-1,4-dihydro-quinoline-3-carboxylic acid hydrochloride]
[1]; [12]
  MIC: 0.5 µg/mL

## O=C(O)c1cn(C2CC2)c2cc(N3CCC(O)(COc4ccc(N5C[C@H](COP(=O)(O)O)OC5=O)cc4F)CC3)c(F)cc2c1=O [Example 5, 1-cyclopropyl-6-fluoro-7-{4-[2-fluoro-4-((R)-2-oxo-5-phosphonooxymethyl-oxazolidin-3-yl)-phenoxymethyl]-4-hydroxy-piperidin-1-yl}-4-oxo-1,4-dihydro-quinoline-3-carboxylic acid]
[1]; [13]
  MIC: 0.25 µg/mL
[1]; [14]
  MIC: > 16 µg/mL

## O=C(O)c1cn(C2CC2)c2cc(N3CCC(COc4ccc(N5C[C@H](CO)OC5=O)cc4F)(OP(=O)(O)O)CC3)c(F)cc2c1=O [Example 10, 1-cyclopropyl-6-fluoro-7-{4-[2-fluoro-4-((R)-5-hydroxymethyl-2-oxo-oxazolidin-3-yl)-phenoxymethyl]-4-phosphonooxy-piperidin-1-yl}-4-oxo-1,4-dihydro-quinoline-3-carboxylic acid]
[1]; [13]
  MIC: 0.5 µg/mL
[1]; [14]
  MIC: 16 µg/mL (≈ 24 µM)

## CCn1cc(C(=O)O)c(=O)c2cc(F)c(N3CCC(COc4ccc(N5C[C@H](CO)OC5=O)cc4F)CC3)cc21 [Example 11, 1-ethyl-6-fluoro-7-{4-[2-fluoro-4-((R)-5-hydroxymethyl-2-oxo-oxazolidin-3-yl)-phenoxymethyl]-piperidin-1-yl}-4-oxo-1,4-dihydro-quinoline-3-carboxylic acid]
[1]; [11]
  MIC: > 16 µg/mL
[8]
  MIC: 8 µg/mL (≈ 14.3 µM)

## C[C@H](N)C(=O)OC[C@H]1CN(c2ccc(OCC3CCN(c4cc5c(cc4F)c(=O)c(C(=O)O)cn5C4CC4)CC3)c(F)c2)C(=O)O1.Cl [Example 12, 7-(4-{4-[(R)-5-((S)-2-amino-propionyloxymethyl)-2-oxo-oxazolidin-3-yl]-2-fluoro-phenoxymethyl}-piperidin-1-yl)-1-cyclopropyl-6-fluoro-4-oxo-1,4-dihydro-quinoline-3-carboxylic acid hydrochloride]
[1]; [12]
  MIC: 0.5 µg/mL

## O=C(O)c1c[nH]c2cc(N3CCC(O)(COc4ccc(N5C[C@H](CO)OC5=O)cc4F)CC3)c(F)cc2c1=O [Example 13, 6-fluoro-7-{4-[2-fluoro-4-((R)-5-hydroxymethyl-2-oxo-oxazolidin-3-yl)-phenoxymethyl]-4-hydroxy-piperidin-1-yl}-4-oxo-1,4-dihydro-quinoline-3-carboxylic acid]
[1]; [11]
  MIC: 2 µg/mL (≈ 3.67 µM)

## O=C(O)c1c[nH]c2nc(N3CCC(O)(COc4ccc(N5C[C@H](CO)OC5=O)cc4F)CC3)c(F)cc2c1=O [Example 14, 6-fluoro-7-{4-[2-fluoro-4-((R)-5-hydroxymethyl-2-oxo-oxazolidin-3-yl)-phenoxymethyl]-4-hydroxy-piperidin-1-yl}-4-oxo-1,4-dihydro-[1,8]naphthyridine-3-carboxylic acid]
[1]; [11]
  MIC: 4 µg/mL (≈ 7.32 µM)

## Cc1ncc([N+](=O)[O-])n1CCO [metronidazole]
[9]
  MIC90: 1 µg/mL (≈ 5.84 µM)
[10]; 1 and 8 μg/mL, day 5 vs day 1, high density stationary phase cultures
  de novo toxin A production in supernatants: did not inhibit toxin A production under these conditions or did so only weakly

## CN[C@H](CC(C)C)C(=O)N[C@H]1C(=O)N[C@@H](CC(N)=O)C(=O)N[C@H]2C(=O)N[C@H]3C(=O)N[C@H](C(=O)N[C@H](C(=O)O)c4cc(O)cc(O)c4-c4cc3ccc4O)[C@H](O)c3ccc(c(Cl)c3)Oc3cc2cc(c3O[C@@H]2O[C@H](CO)[C@@H](O)[C@H](O)[C@H]2O[C@H]2C[C@](C)(N)[C@H](O)[C@H](C)O2)Oc2ccc(cc2Cl)[C@H]1O [vancomycin]
[10]
  de novo toxin A production in supernatants: did not inhibit toxin A production under these conditions or did so only weakly
